Experimental data: PubChem BioAssay (NCI)
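96-well plates; 48 h exposure; 5 concentrations. Endpoints by linear interpolation between flanking doses. Not reached: highest tested concentration assigned. TGI is the concentration that stops growth completely.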

What was measured:
Assay in all cases: NCI anticancer screen, dose series, 48 h
[1] = tested on: 786-0 renal
[2] = tested on: A498 renal
[3] = tested on: A549 NSCLC
[4] = tested on: ACHN renal
[5] = tested on: BT-549 breast
[6] = tested on: CAKI-1 renal
[7] = tested on: CCRF-CEM leukemia
[8] = tested on: COLO 205 colon
[9] = tested on: DU-145 prostate
[10] = tested on: EKVX NSCLC
[11] = tested on: HCC-2998 colon
[12] = tested on: HCT-116 colon
[13] = tested on: HCT-15 colon
[14] = tested on: HL-60(TB) leukemia
[15] = tested on: HOP-62 NSCLC
[16] = tested on: HOP-92 NSCLC
[17] = tested on: HS 578T breast
[18] = tested on: HT29 colon
[19] = tested on: IGROV1 ovarian
[20] = tested on: KM12 colon
[21] = tested on: LOX IMVI melanoma
[22] = tested on: M14 melanoma
[23] = tested on: MALME-3M melanoma
[24] = tested on: MCF7 breast
[25] = tested on: MDA-MB-231 breast
[26] = tested on: MDA-MB-435
[27] = tested on: MDA-N
[28] = tested on: NCI-H226 lung
[29] = tested on: NCI-H23 lung
[30] = tested on: NCI-H460 lung
[31] = tested on: NCI-H522 lung
[32] = tested on: NCI/ADR-RES ovarian
[33] = tested on: OVCAR-3 ovarian
[34] = tested on: OVCAR-4 ovarian
[35] = tested on: OVCAR-5 ovarian
[36] = tested on: OVCAR-8 ovarian
[37] = tested on: PC-3 prostate
[38] = tested on: RPMI-8226 leukemia
[39] = tested on: RXF 393 renal
[40] = tested on: SF-268 CNS
[41] = tested on: SF-295 CNS
[42] = tested on: SF-539 CNS
[43] = tested on: SK-MEL-2 melanoma
[44] = tested on: SK-MEL-28 melanoma
[45] = tested on: SK-MEL-5 melanoma
[46] = tested on: SK-OV-3 ovarian
[47] = tested on: SN12C renal
[48] = tested on: SNB-19 CNS
[49] = tested on: SNB-75 CNS
[50] = tested on: SR leukemia
[51] = tested on: SW-620 colon
[52] = tested on: T-47D breast
[53] = tested on: TK-10 renal
[54] = tested on: U251 CNS
[55] = tested on: UACC-257 melanoma
[56] = tested on: UO-31 renal
[57] = tested on: MOLT-4 leukemia
[58] = tested on: UACC-62 melanoma

Q: CC(=N\N=C\c1ccccn1)/C(C)=N/N=C(C)/C(C)=N/N=C/c1ccccn1 was tested. Which TGI [1] did it give?
A: > 100 µM

Q: And the TGI [2]?
A: > 100 µM

Q: And the TGI [3]?
A: > 100 µM

Q: What about the TGI [4] of the same compound?
A: > 100 µM

Q: What about the TGI [5] of the same compound?
A: > 100 µM

Q: And the TGI [6]?
A: > 100 µM

Q: And the TGI [7]?
A: > 100 µM

Q: And the TGI [8]?
A: > 100 µM

Q: What about the TGI [9] of the same compound?
A: > 100 µM

Q: What about the TGI [10] of the same compound?
A: > 100 µM

Q: What about the TGI [11] of the same compound?
A: > 100 µM

Q: What about the TGI [12] of the same compound?
A: > 100 µM

Q: And the TGI [13]?
A: > 100 µM

Q: And the TGI [14]?
A: > 100 µM

Q: What about the TGI [15] of the same compound?
A: > 100 µM

Q: And the TGI [16]?
A: > 100 µM

Q: What about the TGI [17] of the same compound?
A: > 100 µM

Q: What about the TGI [18] of the same compound?
A: > 100 µM

Q: What about the TGI [19] of the same compound?
A: > 100 µM

Q: And the TGI [20]?
A: > 100 µM

Q: And the TGI [21]?
A: > 100 µM

Q: What about the TGI [22] of the same compound?
A: > 100 µM

Q: And the TGI [23]?
A: > 100 µM

Q: And the TGI [24]?
A: > 100 µM

Q: What about the TGI [25] of the same compound?
A: > 100 µM

Q: What about the TGI [26] of the same compound?
A: > 100 µM

Q: What about the TGI [27] of the same compound?
A: > 100 µM

Q: And the TGI [28]?
A: > 100 µM

Q: And the TGI [29]?
A: > 100 µM

Q: What about the TGI [30] of the same compound?
A: > 100 µM

Q: And the TGI [31]?
A: > 100 µM

Q: What about the TGI [32] of the same compound?
A: > 100 µM

Q: What about the TGI [33] of the same compound?
A: > 100 µM

Q: And the TGI [34]?
A: > 100 µM

Q: What about the TGI [35] of the same compound?
A: > 100 µM

Q: What about the TGI [36] of the same compound?
A: > 100 µM

Q: And the TGI [37]?
A: > 100 µM

Q: And the TGI [38]?
A: > 100 µM

Q: What about the TGI [39] of the same compound?
A: > 100 µM

Q: And the TGI [40]?
A: > 100 µM

Q: And the TGI [41]?
A: > 100 µM

Q: And the TGI [42]?
A: > 100 µM

Q: What about the TGI [43] of the same compound?
A: > 100 µM

Q: What about the TGI [44] of the same compound?
A: > 100 µM

Q: And the TGI [45]?
A: > 100 µM

Q: And the TGI [46]?
A: > 100 µM

Q: What about the TGI [47] of the same compound?
A: > 100 µM

Q: And the TGI [48]?
A: > 100 µM

Q: What about the TGI [49] of the same compound?
A: > 100 µM

Q: What about the TGI [50] of the same compound?
A: > 100 µM

Q: What about the TGI [51] of the same compound?
A: > 100 µM

Q: And the TGI [52]?
A: > 100 µM

Q: What about the TGI [53] of the same compound?
A: > 100 µM

Q: What about the TGI [54] of the same compound?
A: > 100 µM

Q: What about the TGI [55] of the same compound?
A: > 100 µM

Q: And the TGI [56]?
A: > 100 µM

Q: Which results are given for COC(=O)/C=C(\S/C(=N\n1cc(C(=O)OC)c(C(=O)OC)c1-c1ccc(C)cc1)c1ccc(C)cc1)C(=O)OC?
A: TGI [1]: 9.69 µM; TGI [2]: 30 µM; TGI [3]: 51.8 µM; TGI [4]: 5.78 µM; TGI [5]: 21.3 µM; TGI [8]: 6.61 µM; TGI [9]: 31.4 µM; TGI [10]: 32.8 µM; TGI [11]: 34 µM; TGI [12]: 4.2 µM; TGI [13]: 7.34 µM; TGI [14]: 14.7 µM; TGI [15]: 41.6 µM; TGI [16]: 8.31 µM; TGI [17]: 62.8 µM; TGI [18]: 9.67 µM; TGI [19]: 44.5 µM; TGI [20]: 41.9 µM; TGI [21]: 17 µM; TGI [22]: 11 µM; TGI [23]: 13.9 µM; TGI [24]: 23.7 µM; TGI [25]: 11.7 µM; TGI [26]: 13.5 µM; TGI [27]: 12.7 µM; TGI [57]: > 100 µM; TGI [28]: 3.5 µM; TGI [29]: 11.5 µM; TGI [30]: > 56.6 µM; TGI [31]: 3.7 µM; TGI [32]: 17.2 µM; TGI [33]: 12.4 µM; TGI [34]: 3.37 µM; TGI [35]: 14.5 µM; TGI [36]: 34.9 µM; TGI [37]: 10.3 µM; TGI [38]: 20.1 µM; TGI [39]: 13.9 µM; TGI [40]: 40.4 µM; TGI [41]: > 100 µM; TGI [42]: 33 µM; TGI [43]: 15 µM; TGI [44]: 12.5 µM; TGI [45]: 27.1 µM; TGI [46]: > 57.3 µM; TGI [47]: 11.8 µM; TGI [48]: > 61 µM; TGI [49]: 31.4 µM; TGI [50]: 67.3 µM; TGI [51]: 5.53 µM; TGI [52]: > 100 µM; TGI [53]: 8.42 µM; TGI [54]: 14.1 µM; TGI [55]: 9.84 µM; TGI [58]: 25.9 µM; TGI [56]: 8.48 µM
